The source of these data is US7985755B2, “2,4-diaminoquinazolines for spinal muscular atrophy” (Families of Spinal Muscular Atrophy, priority 2006, dated 2011).

Counter-ions that a name gives are not always drawn.

For the first assay, the system named is SMN2 promoter. As to the kind of experiment: SMN2 promoter assay in NSC-34 cells (β-lactamase reporter). In kind it is cell-based, mouse. Conditions: Mus musculus, Table 1, SMN2 promoter driving β-lactamase, 12 point dose curve, read-out: Promoter Assay EC50. The source says:
All compounds were screened using an in vitro based SMN2 promoter assay. We used NSC-34 cells, a hybrid cell line between mouse spinal cord cells and mouse neuroblastoma cells. NSC-34 cells harbor an expression plasmid containing a 3.4 kb promoter fragment of the SMN2 gene driving β-lactamase expression.
[…] […] CCF2-AM diffuses across the plasma membrane and is converted into an active β-lactamase substrate by cytoplasmic esterase. […] The fold induction is proportional to the extent of β-lactamase produced and in turn proportional to SMN2 promoter activation for a given compound relative to vehicle (DMSO) control. […] These values are used to rank activities of the compounds and derive structure activity relationship.
The term EC50 denotes the concentration giving half of the maximal effect. Turning to `Nc1nc(N)c2c(OCC3(S(=O)(=O)c4cccc(Cl)c4)CCNCC3)cccc2n1` [Example-026, 5-[4-(3-Chlorobenzenesulfonyl)piperidin-4-ylmethoxy]quinazoline-2,4-diamine], the concentration giving a half-maximal response (EC50) was < 1000 nM. On to `Nc1nc(N)c2c(OCC3CCN(C(=O)c4ccc(F)cc4F)CC3)cccc2n1` [Example-022, [4-(2,4-Diaminoquinazolin-5-yloxymethyl)piperidin-1-yl]-(2,4-difluorophenyl)methanone], for which the EC50 is < 1000 nM.

Take `Nc1nc(N)c2c(OCC3CCN(Cc4ccc(Cl)cc4)CC3)cccc2n1` [Example-004, 5-[1-(4-Chlorobenzyl)piperidin-4-ylmethoxy]quinazoline-2,4-diamine hydrochloride]: the EC50 is < 1000 nM. On to `Nc1nc(N)c2c(OCC3CCN(Cc4cccc(C(=O)O)c4)CC3)cccc2n1` [Example-222, 3-[4-(2,4-Diamino-quinazolin-5-yloxymethyl)-piperidin-1-ylmethyl]-benzoic acid], for which the EC50 is 1000 to 5000 nM.

Consider `Cc1cccc(C(=O)N2CCC(COc3cccc4nc(N)nc(N)c34)CC2)c1` [Example-020, [4-(2,4-Diaminoquinazolin-5-yloxymethyl)piperidin-1-yl]-m-tolylmethanone], for which the EC50 was < 1000 nM.

The assay is the same for the next values; noted with them: Mus musculus, Table 4, SMN2 promoter driving β-lactamase, read-out: Promoter Assay EC50 for 2391.003C(P).
`Nc1nc(N)c2c(N3CCN(Cc4ccccc4)CC3)cccc2n1` [Example-169, 5-(4-Benzyl-piperazin-1-yl)-quinazoline-2,4-diamine]: the EC50 is 1000 to 5000 nM. Consider `Nc1nc(N)c2c(N3CCN(Cc4ccc(Cl)cc4)CC3)cccc2n1` [Example-173, 5-[4-(4-Chloro-benzyl)-piperazin-1-yl]-quinazoline-2,4-diamine], for which the concentration for a half-maximal effect (EC50) is < 1000 nM. The same measure, in the same setting: under `Nc1nc(N)c2c(N3CCN(Cc4ccc5c(c4)OCO5)CC3)cccc2n1` [Example-182, 5-(4-Benzo[1,3]dioxol-5-ylmethyl-piperazin-1-yl)-quinazoline-2,4-diamine] stands < 1000 nM.

The same assay, now with this note: Mus musculus, Table 6, SMN2 promoter driving β-lactamase, read-out: Promoter Assay EC50.
In the case of `CC1CC(COc2cccc3nc(N)nc(N)c23)CC(C)N1Cc1c(F)cccc1Cl` (centres unmarked) [Example-227, 5-[1-(2-Chloro-6-fluoro-benzyl)-2,6-dimethyl-piperidin-4-ylmethoxy]-quinazoline-2,4-diamine], the EC50 is < 1000 nM. `Nc1nc(N)c2c(OCC3CC[N+]([O-])(Cc4ccccc4F)CC3)cccc2n1` (centres unmarked) [Examplc-221]: the EC50 fell in the range of 1000 to 5000 nM. The same measure, in the same setting: under `CC(C)(Oc1cccc2nc(N)nc(N)c12)C1CCN(Cc2c(F)cccc2Cl)CC1` [Example-225, 5-{1-[1-(2-Chloro-6-fluoro-benzyl)-piperidin-4-yl]-1-methyl-ethoxy}-quinazoline-2,4-diamine] stands < 1000 nM; under `CC(C)(Oc1cccc2nc(N)nc(N)c12)C1CCN(Cc2c(Cl)cccc2Cl)CC1` [Example-224, 5-{1-[1-(2,6-Dichloro-benzyl)-piperidin-4-yl]-1-methyl-ethoxy}-quinazoline-2,4-diamine], < 1000 nM.

The assay is the same for the next values; noted with them: Table 1, SMN2 promoter driving β-lactamase, 12 point dose curve, read-out: Promoter Assay EC50.
Regarding `Nc1nc(N)c2c(OCC3CCN(C(=O)c4ccc(Cl)nc4)CC3)cccc2n1` [Example-051], the EC50 is < 1000 nM. Turning to `Cc1noc(C)c1S(=O)(=O)N1CCC(COc2cccc3nc(N)nc(N)c23)CC1` [Example-076], the half-maximal effective concentration (EC50) was < 1000 nM.

Turning to `CC(=O)Nc1ccc(S(=O)(=O)N2CCC(COc3cccc4nc(N)nc(N)c34)CC2)cc1` [Example-090], the EC50 was < 1000 nM. With `Nc1nc(N)c2c(OCC3CCN(C(=O)c4ccc(OC(F)(F)F)cc4)CC3)cccc2n1` [Example-063], the EC50 was < 1000 nM. `Cc1cc(C(=O)N2CCC(COc3cccc4nc(N)nc(N)c34)CC2)no1` [Example-059]: the EC50 was < 1000 nM. On to `COc1ccc(CC(=O)N2CCC(COc3cccc4nc(N)nc(N)c34)CC2)cc1` [Example-045], for which the EC50 lay within 1000 to 5000 nM. Regarding `Nc1nc(N)c2c(OCC3CCN(Cc4cc(Cl)nc(Cl)c4)CC3)cccc2n1` [Example-093], the EC50 was < 1000 nM.

As to `Cc1c(Cl)cccc1S(=O)(=O)N1CCC(COc2cccc3nc(N)nc(N)c23)CC1` [Example-081], the EC50 was < 1000 nM. Turning to `Nc1nc(N)c2c(OCC3CCN(C(=O)c4cccc(C(F)(F)F)c4F)CC3)cccc2n1` [Example-110], the EC50 was < 1000 nM.

As to `Nc1nc(N)c2c(OCC3CCN(S(=O)(=O)c4ccc5ccccc5c4)CC3)cccc2n1` [Example-030], the EC50 is < 1000 nM. Regarding `Nc1nc(N)c2c(OCC3CCN(C(=O)c4ccc5c(c4)OCO5)CC3)cccc2n1` [Example-105], the EC50 was < 1000 nM.

In the case of `Cc1ccc(C)c(CN2CCC(COc3cccc4nc(N)nc(N)c34)CC2)c1` [Example-146], the EC50 is < 1000 nM. As for `Nc1nc(N)c2c(OCC3CCN(C(=O)c4cc(Cl)cc(Cl)c4)CC3)cccc2n1` [Example-054], the EC50 was < 1000 nM. `Nc1nc(N)c2c(OCC3CCN(S(=O)(=O)c4ccccc4C(F)(F)F)CC3)cccc2n1` [Example-087]: the EC50 is < 1000 nM. `Nc1nc(N)c2c(OCC3CCN(C(=O)c4c(F)cccc4F)CC3)cccc2n1` [Example-107]: the EC50 was < 1000 nM.

As for `Nc1nc(N)c2c(OCC3CCN(Cc4ccccc4C(F)(F)F)CC3)cccc2n1` [Example-131], the EC50 is < 1000 nM. With `Nc1nc(N)c2c(OCC3CCN(Cc4ccc(Cl)cc4Cl)CC3)cccc2n1` [Example-104], the EC50 is < 1000 nM. As for `Nc1nc(N)c2c(OCC3CCN(C(=O)c4ccc(Cl)c(Cl)c4)CC3)cccc2n1` [Example-109], the EC50 was < 1000 nM. On the same count and under the same terms, under `CC(=O)Nc1nc(CN2CCC(COc3cccc4nc(N)nc(N)c34)CC2)cs1` [Example-094] stands < 1000 nM. Consider `Nc1nc(N)c2c(OCC3CCN(Cc4cc(Cl)cc(Cl)c4)CC3)cccc2n1` [Example-116], for which the EC50 is < 1000 nM. As to `Nc1nc(N)c2c(OCC3CCN(C(=O)c4ccc(I)cc4)CC3)cccc2n1` [Example-040], the EC50 was < 1000 nM.

As for `Nc1nc(N)c2c(OCC3CCN(S(=O)(=O)c4ccc(Cl)cc4Cl)CC3)cccc2n1` [Example-084], the EC50 was < 1000 nM. In the case of `Nc1nc(N)c2c(OCC3CCN(C(=O)c4cccc(F)c4)CC3)cccc2n1` [Example-046], the EC50 is < 1000 nM. Consider `Nc1nc(N)c2c(OCC3CCN(Cc4ccc(I)cc4)CC3)cccc2n1` [Example-044], for which the EC50 is < 1000 nM. For `Nc1nc(N)c2c(OCC3CCN(C(=O)c4ccc(Cl)cc4Cl)CC3)cccc2n1` [Example-060], the EC50 is < 1000 nM.

As to `Nc1nc(N)c2c(OCC3CCN(Cc4ccncc4)CC3)cccc2n1` [Example-119], the EC50 was < 1000 nM. Turning to `Nc1nc(N)c2c(OCC3CCN(C(=O)c4ccco4)CC3)cccc2n1` [Example-057], the EC50 was < 1000 nM. For `Nc1nc(N)c2c(OCC3CCN(S(=O)(=O)c4c(Cl)cccc4Cl)CC3)cccc2n1` [Example-085], the EC50 is < 1000 nM. Regarding `Nc1nc(N)c2c(OCC3CCN(S(=O)(=O)c4cccc5ccccc45)CC3)cccc2n1` [Example-029], the EC50 is < 1000 nM.

With `Cc1ccc(F)cc1S(=O)(=O)N1CCC(COc2cccc3nc(N)nc(N)c23)CC1` [Example-079], the EC50 is < 1000 nM.

On to `CC(C)(C)OC(=O)N1CCC(COc2cccc3nc(N)nc(N)c23)CC1` [Example-037], for which the EC50 was < 1000 nM.

Still in this assay, the particulars now being: Table 3, SMN2 promoter driving β-lactamase, read-out: Promoter Assay EC50.
On to `COC(=O)c1cccc(CN2CCC(COc3cccc4nc(N)nc(N)c34)CC2)c1` [Example-156], for which the EC50 was < 1000 nM.
